Tested on: soluble Aβ (1-40) peptide
Assay: In vivo effect on soluble Aβ (1-40) in whole brain homogenates of CB.17 SCID mice (ELISA)
Conditions: CB17 SCID mice, oral, 300 mg/kg/day for 20 days, brain extracts; P=0.012 vs. control
Method: FIG. 1 provides a graph showing a decrease in soluble AD levels in CB17 SCID mice treated with 2ME2. Mice (5 animals per group) were treated orally for 5 or 20 days with 300 mg/kg/day 2ME2, and soluble Aβ levels were measure in whole brain homogenates. (*P=0.012 vs. control)
CB. 17 SCID mice were treated orally for 5 or 20 days with 300 mg/kg/day 2ME2. At the end of treatment mice were humanely euthanized, and mouse brain was recovered surgically. This tissue was immediately frozen on dry ice until processing for ELISA analysis of soluble Aβ peptide. Serum is also routinely collected for later analysis as well.
Preparation of the Brain Extract Solution
1. Homogenize brains into 15 vol of ice cold TBS, pH 7.4 containing leupeptide (10 ug/ml) and aprotinin (20 ug/ml).
2. Transfer to microcentrifuge tubes and spin 20,000 g for 20 min at 4° C.
3. Remove supernatant (TBS Extract) to ice.
4. Wash once with cold TBS and resuspend in 15 vol of TBS/1% Triton X-100 and protease inhibitors. Incubate 30 min at 4° C. with agitation.
5. Transfer to microcentrifuge tubes and spin 20,000 g for 20 min at 4° C.
6. Remove supernatant (Triton Extract) to ice. […]
Harvested brains were homogenized with a tissue homogenizer, and subjected to serial extraction with TBS followed by TBS/Triton X-100. […] Brains were harvested, and soluble Aβ was assessed. […]

COc1cc2c(cc1O)CC[C@@H]1[C@@H]2CC[C@]2(C)[C@@H](O)CC[C@@H]12 [2ME2, 2-methoxyestradiol] was tested, and the “decrease in the levels of soluble Aβ (inhibition)” value was 46%.

— patent publication US20080234243A1, “METHOD OF TREATING AMYLOIDOSIS MEDIATED DISEASES” (priority 2007, published 2008)
